Results reported in patent US20230348866A1, “BI[…] FOR THE PRODUCTION OF CANNABINOIDS AND OTHER […]” (The Regents of the University of California, priority 2019, published 2023).

Tests used:
[1] = tested on: MatB pathway (RpMatB, CsAAE3, CsOLS, CsOAC); assay: OA/DA production using the MatB pathway with additives; format: biochemical; details: titer at 4 hours relative to control
Experimental: (§1) OA/DA Reaction Conditions using MatB. The conditions for reactions using RpMatB to produce malonyl-CoA were as follows: 15 mM malonate, 5 mM hexanoate or 5 mM butyrate, 1 mM CoA, 4 mM ATP, 25 mM creatine phosphate, 10 mM KCl, 5 mM MgCl2 and 50 mM Tris pH 8.0, 1.3 μM RpMatB, 4.9 μM CsAAE3, 2.9 μM CsOLS, 46.6 μM CsOAC, 7.6 μM GsPpase, 2.6 μM ADK and 2 units of CPK (from Sigma Aldrich). For the additive reactions GPP (0.5-2 mM), OA (0.25-2 mM) and DA (0.25-5 mM) were added before the reaction was initiated.
For the time course, the reactions were quenched (see below) at various time points between 5 mins and 5 hours. The reactions with additives were quenched at 4 hours.
HPLC Sample Analysis. All samples were quenched by 4-fold dilution into methanol (samples with a higher concentration of analyte were diluted up to 10-fold). The protein precipitate was removed by centrifugation at 16,000×g for 5 minutes and the supernatant was transferred to an LC vial for analysis.
Samples were analyzed by reverse phase chromatography on a Syncronis C8 column (4.6×100 mm) using a Thermo Ultimate 3000 HPLC. The column compartment temperature was set to 40° C., and the flow rate was 1 mL/min. The sample inject volume was 20 μL (full loop). The compounds were separated using a gradient elution with water+0.1% TFA (solvent A) and acetonitrile+0.1% TFA (solvent B) as the mobile phase. Solvent B was held at 20% for the first minute. Then solvent B was increased to 95% B over 4 minutes, and held at 95% B for 3 minutes. The column was then re-equilibrated to 20% B for three minutes, for a total run time of 11 minutes. Standards were used to identify the retention time, and to produce an external standard curve for quantification.

[2] = molecular target: T1, OLS (Cannabis sativa, UniProt B1Q2B6); assay: OLS activity assay (inhibition by OA/DA); format: biochemical, C. sativa; details: for inhibition of OLS activity: individual enzymes screened, 250 μM OA or 1 mM DA
T1 construct: CsAAE3, CsOLS and CsOAC were synthesized and cloned into the pET28(+) vector with Nde1/Xho1 restriction sites; made in house; host or cells: E. coli C43 BL21 (DE3)
T1 sequence (B1Q2B6 with tags, fused parts or gaps): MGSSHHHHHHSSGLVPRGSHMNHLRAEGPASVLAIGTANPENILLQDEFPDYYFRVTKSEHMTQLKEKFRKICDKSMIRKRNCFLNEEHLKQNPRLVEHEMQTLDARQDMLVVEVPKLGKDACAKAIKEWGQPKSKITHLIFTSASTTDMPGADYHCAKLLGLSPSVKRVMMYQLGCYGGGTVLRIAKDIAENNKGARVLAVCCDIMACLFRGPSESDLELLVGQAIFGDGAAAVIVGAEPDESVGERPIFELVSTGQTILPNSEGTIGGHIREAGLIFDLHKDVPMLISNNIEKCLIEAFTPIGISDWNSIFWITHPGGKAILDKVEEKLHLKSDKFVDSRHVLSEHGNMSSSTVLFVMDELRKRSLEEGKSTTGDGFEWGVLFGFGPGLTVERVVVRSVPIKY
Experimental: OLS Activity Assay. For the inhibition experiments the conditions were altered to: 1 mM malonyl-CoA, 400 μM hexanoyl-CoA in 50 mM citrate buffer, pH 5.5 in a final volume of 200 μL. Either 1% ethanol, 250 μM OA or 1 mM DA was added to the reaction, and then the reactions were initiated by adding 0.65 mg/mL OLS. 50 μL aliquots were quenched at 2, 4, 6 and 8 minutes in 150 μL of methanol. The reactions were vortexed briefly and centrifuged at 16,000×g for 2 minutes to pellet the proteins. The supernatant was analyzed by HPLC. The raw peak areas of HTAL, PDAL and olivetol were summed and plotted against time to determine the rate. The rate of the OA supplemented reaction and the DA supplemented reaction were normalized to the ethanol control.

[3] = tested on: OA pathway; assay: RpMatB reaction system with added GPP and NphB M31^S; format: biochemical; details: increasing GPP (0.5-2 mM)
Experimental: as §1
In an effort to reduce OA/DA inhibition, experiments were performed to remove OA/DA from the reaction as it is made by converting it directly into CBGA/CBGVA. To test this GPP and a stabilized CBGA synthase were added to the system (FIG. 6). The CBGA synthase used, NphB M31^S, is a stabilized version of the soluble enzyme designed previously (Valliere et al., Nat. Commun. 10:565, 2019). […] Experiments were performed to test the effect of GPP concentration on OA production. At just 500 μM GPP, OA production decreased 40% percent (FIG. 2C).

Compound	reduction of DA production ([1]; 1 mM OA added at time zero)	inhibition of OLS activity [2]	inhibition of enzyme activity, comparison among enzymes ([2]; reaction relevant conditions)	decrease of OA production ([1]; 500 μM GPP added)	overall production of OA and CBGA [3]	reduction of OA production ([1]; 1 mM DA added at time zero)
CCCCCc1cc(O)cc(O)c1C(=O)O [OA, olivetolic acid]	90%	strongly inhibited	CsOLS is the most inhibited	–	–	–
CC(C)=CCC/C(C)=C/COP(=O)(O)OP(=O)(O)O [GPP, geranyl pyrophosphate]	–	–	–	40%	decrease	–
CCCc1cc(O)cc(O)c1C(=O)O [DA, divarinic acid]	–	strongly inhibited	–	–	–	30%
